Where a name gives a salt, the structure may show the parent alone. Read-outs that look alike come from different tables or passages of the source.
Experiments:
[1] = tested on: human non-small cell lung cancer A549 cells; test: Inhibitory effect on growth of human cancer cells (in vitro), WST-8; assay type: cell-based; conditions: 96 hours culture
In short: (§1)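 Cells seeded at 1000 cells/well in RPMI1640 with 10% FBS, compounds added after overnight culture, then 96 h exposure. Viability by WST-8, about 1 h at 37 °C, 5% CO2, absorbance read at 450 nm.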

[2] = tested on: human colorectal cancer HCT116 cells; test: as above; assay type: cell-based; conditions: 96 hours culture
In short: as §1

[3] = tested on: human colorectal cancer HT-29 cells; test: as above; assay type: cell-based; conditions: 96 hours culture, read-out: IC50 (nM) HT29
In short: as §1

[4] = tested on: human lung cancer NCI-H460 xenograft tumor; test: Antitumor effect on growth of human lung cancer NCI-H460 xenograft tumor (in vivo); design: species or system BALB/c nude mice; conditions: Mus musculus, NCI-H460, iv, 528 h, tail vein, excised tumor weight Day 22, read-out: Inhibition Rate (%)
Experimental: Each compound of the present invention was studied for its in vivo antitumor effect using human lung cancer NCI-H460 cell-transplanted mice. An NCI-H460 cell suspension containing 2×10^6 cells was subcutaneously transplanted in an amount of 0.1 mL/mouse to the left groin areas of 6-week-old male BALB/c nude mice. The mice were further raised for approximately 1 week to 10 days and divided into groups (4 mice per group) having equal estimated tumor volumes at the point in time when the tumor size reached approximately 100 to 200 mm^3 (Day 1). Each administration sample was administered at a dose of 10 mL/kg into the tail vein of the mice. The dose and administration schedule of each compound were as described in Table 3. At Day 22, tumor was excised from each mouse. The tumor growth inhibition rate (IR: Inhibition Rate) was calculated from the weight of the excised tumor according to the expression shown below. The Dunnett's test was used in the significant difference test.
Tumor growth inhibition rate (Inhibition Rate, %)=(1−(Excised tumor weight of the administration group)/(Excised tumor weight of the control group))×100

[5] = Days 1, 3, 5, 8, 10, 12, 15, 17, 19
[6] = Days 1, 3, 8, 10, 12, 15, 17, 19

| Structure (SMILES) | IC50 ([1]; Homo sapiens, A549, 96 h) [nM] | IC50 ([2]; Homo sapiens, HCT-116, 96 h) [nM] | IC50 ([3]; Homo sapiens, HT-29, 96 h) [nM] | other results |
| --- | --- | --- | --- | --- |
| CCn1nnc(-c2[nH]c(C)c(C(=O)c3cccc(Br)c3)c2C)n1 [Compound 97, (3-bromophenyl)(5-(2-ethyl-2H-tetrazol-5-yl)-2,4-dimethyl-1H-pyrrol-3-yl)methanone] | 2.4 | 4.1 | 3.5 | inhibition in vivo at 30 mg/kg ([4]; 30 mg/kg, Days 1, 3, 5, 8, 10, 12, 15, 17, 19): 31.2% |
| COc1cccc(C(=O)c2c(C)[nH]c(-c3nnn(CCO)n3)c2C)c1 [Compound 107] | 54.9 | 27.4 | 16.1 | inhibition in vivo at 25 mg/kg [4, 5]: 32.6% |
| CCn1nnc(-c2[nH]c(C)c(C(=O)c3ccc(OC)c(Br)c3)c2C)n1 [Compound 109, (3-bromo-4-methoxyphenyl)(5-(2-ethyl-2H-tetrazol-5-yl)-2,4-dimethyl-1H-pyrrol-3-yl)methanone] | 9.2 | 2 | 1 | inhibition in vivo at 25 mg/kg [4, 6]: 29% |
| CCc1nnc(-c2[nH]c(C)c(C(=O)c3cccc(Br)c3)c2C)o1 [Compound 173, (3-bromophenyl)(5-(5-ethyl-1,3,4-oxadiazol-2-yl)-2,4-dimethyl-1H-pyrrol-3-yl)methanone] | 5.1 | 1.1 | 1 | inhibition in vivo at 10 mg/kg [4, 5]: 40.2% |
| CCc1nnc(-c2[nH]c(C)c(C(=O)c3cccc(OC)c3)c2C)o1 [Compound 193, (5-(5-ethyl-1,3,4-oxadiazol-2-yl)-2,4-dimethyl-1H-pyrrol-3-yl) (3-methoxyphenyl)methanone] | 4.3 | 2.5 | 2.1 | inhibition in vivo at 10 mg/kg [4, 6]: 33.9% |
| COc1ccc(Br)cc1C(=O)c1c(C)[nH]c(-c2nnc(C3CC3)o2)c1C [Compound 240, (5-bromo-2-methoxyphenyl)(5-(5-cyclopropyl-1,3,4-oxadiazol-2-yl)-2,4-dimethyl-1H-pyrrol-3-yl)methanone] | 2.1 | 1.9 | 1.1 | inhibition in vivo at 12.5 mg/kg ([4]; 12.5 mg/kg, Days 1, 3, 5, 8, 10, 12, 15, 17, 19): 33.2% |
| COc1ccc(C(=O)c2c(C=O)[nH]c(-c3nnc(C4CC4)o3)c2C)cc1Br [Compound 263, 3-(3-bromo-4-methoxybenzoyl)-5-(5-cyclopropyl-1,3,4-oxadiazol-2-yl)-4-methyl-1H-pyrrole-2-carboaldehyde] | 36.5 | 53.8 | 32.5 | inhibition in vivo at 50 mg/kg ([4]; 50 mg/kg, Days 1, 3, 5, 8, 10, 12, 15, 17, 19): 59.6% |
| Cc1c(-c2nnc(C3CC3)o2)[nH]c(CO)c1C(=O)c1cccc(Br)c1 [Compound 264, (3-bromophenyl)(5-(5-cyclopropyl-1,3,4-oxadiazol-2-yl)-2-(hydroxymethyl)-4-methyl-1H-pyrrol-3-yl)methanone] | 8.2 | 1.8 | 1.8 |  |
| Cc1c(-c2nnc(C3CC3)o2)[nH]c(C(F)F)c1C(=O)c1cccc(Br)c1 [Compound 265, (3-bromophenyl)(5-(5-cyclopropyl-1,3,4-oxadiazol-2-yl)-2-(difluoromethyl)-4-methyl-1H-pyrrol-3-yl)methanone] | 46 | 158 | 37.1 |  |
| COc1ccc(C(=O)c2c(CO)[nH]c(-c3nnc(C4CC4)o3)c2C)cc1Br [Compound 266, (3-bromo-4-methoxyphenyl)(5-(5-cyclopropyl-1,3,4-oxadiazol-2-yl)-2-(hydroxymethyl)-4-methyl-1H-pyrrol-3-yl)methanone] | 4.7 | 1.6 | 2.7 | inhibition in vivo at 20 mg/kg [4, 5]: 39.4% |
| COc1ccc(C(=O)c2c(C(F)F)[nH]c(-c3nnc(C4CC4)o3)c2C)cc1Br [Compound 267, (3-bromo-4-methoxyphenyl) (5-(5-cyclopropyl-1,3,4-oxadiazol-2-yl)-2-(difluoromethyl)-4-methyl-1H-pyrrol-3-yl)methanone] | 13 | 39 | 10.7 | inhibition in vivo at 20 mg/kg [4, 5]: 35.6% |
| COc1ccc(C(=O)c2c(CN3CCCCC3)[nH]c(-c3nnc(C4CC4)o3)c2C)cc1Br [Compound 270, (3-bromo-4-methoxyphenyl)(5-(5-cyclopropyl-1,3,4-oxadiazol-2-yl)-4-methyl-2-(piperidin-1-ylmethyl)-1H-pyrrol-3-yl)methanone] | 859 | 819 | 725 |  |
| Cc1noc(-c2[nH]c(C)c(C(=O)c3cccc(Br)c3)c2C)n1 [Compound 271, (3-bromophenyl) (2,4-dimethyl-5-(3-methyl-1,2,4-oxadiazol-5-yl)-1H-pyrrol-3-yl)methanone] | 92.9 | 50.4 | 44.1 |  |
| CCc1cnc(-c2[nH]c(C)c(C(=O)c3cccc(Br)c3)c2C)o1 [Compound 272, (3-bromophenyl) (5-(5-ethyloxazol-2-yl)-2,4-dimethyl-1H-pyrrol-3-yl)methanone] | 66.6 | 48.4 | 42 |  |
| Cc1c(-c2nnn(CCN)n2)[nH]c(CO)c1C(=O)c1cccc(Br)c1 [Compound 280, (5-(2-(2-aminoethyl)-2H-tetrazol-5-yl)-2-(hydroxymethyl)-4-methyl-1H-pyrrol-3-yl) (3-bromophenyl)methanone] | 250 | 250 | 194 |  |
| CCn1nnc(-c2[nH]c(C)c(C(=O)c3cccc(OCCN)c3)c2C)n1 [Compound 296, (3-(2-aminoethoxy)phenyl)(5-(2-ethyl-2H-tetrazol-5-yl)-2,4-dimethyl-1H-pyrrol-3-yl)methanone hydrochloride] |  |  |  | IC50 ([1]; hydrochloride): 637 nM; IC50 ([2]; hydrochloride): 208 nM; IC50 ([3]; hydrochloride): 198 nM |
| Cc1[nH]c(-c2nnn(CCOC(=O)CN)n2)c(C)c1C(=O)c1cccc(Br)c1 [Compound 297, 2-(5-(4-(3-bromobenzoyl)-3,5-dimethyl-1H-pyrrol-2-yl)-2H-tetrazol-2-yl)ethyl 2-aminoacetate hydrochloride] |  |  |  | IC50 ([1]; hydrochloride): 12.2 nM; IC50 ([2]; hydrochloride): 7.3 nM; IC50 ([3]; hydrochloride): 8.2 nM |
| CCn1nnc(-c2[nH]c(C)c(C(=O)c3ccc(OCCN)c(Br)c3)c2C)n1 [Compound 302, (4-(2-aminoethoxy)-3-bromophenyl)(5-(2-ethyl-2H-tetrazol-5-yl)-2,4-dimethyl-1H-pyrrol-3-yl)methanone hydrochloride] |  |  |  | IC50 ([1]; hydrochloride): 47.4 nM; IC50 ([2]; hydrochloride): 35 nM; IC50 ([3]; hydrochloride): 33 nM |

Second part, led by results:

| IC50 ([1]; Homo sapiens, A549, 96 h) [nM] | IC50 ([2]; Homo sapiens, HCT-116, 96 h) [nM] | IC50 ([3]; Homo sapiens, HT-29, 96 h) [nM] | Structure (SMILES) | other results |
| --- | --- | --- | --- | --- |
| 525 | 754 | 315 | CNC(=O)c1[nH]c(-c2nnn(CCN)n2)c(C)c1C(=O)c1cccc(Br)c1 [Compound 282, 5-(2-(2-aminoethyl)-2H-tetrazol-5-yl)-3-(3-bromobenzoyl)-N,4-dimethyl-1H-pyrrole-2-carboxamide] |  |
| 595 | 246 | 598 | Cc1c(-c2nnn(CCO)n2)[nH]c(C(C)(C)O)c1C(=O)c1cccc(Br)c1 [Compound 285, (3-bromophenyl)(5-(2-(2-hydroxyethyl)-2H-tetrazol-5-yl)-2-(2-hydroxypropan-2-yl)-4-methyl-1H-pyrrol-3-yl)methanone] |  |
| 8.2 | 7.1 | 6.7 | Cc1[nH]c(-c2nnn(CCO)n2)c(Br)c1C(=O)c1cccc(Br)c1 [Compound 288, (4-bromo-5-(2-(2-hydroxyethyl)-2H-tetrazol-5-yl)-2-methyl-1H-pyrrol-3-yl)(3-bromophenyl)methanone] |  |
| 167 | 184 | 123 | Cc1[nH]c(-c2nnn(CCN)n2)c(Br)c1C(=O)c1cccc(Br)c1 [Compound 290, (5-(2-(2-aminoethyl)-2H-tetrazol-5-yl)-4-bromo-2-methyl-1H-pyrrol-3-yl)(3-bromophenyl)methanone] |  |
| 509 | 957 | 460 | CNC(=O)c1[nH]c(-c2nnn(CCOC(C)=O)n2)c(C)c1C(=O)c1ccc(OC)c(Br)c1 [Compound 295, 2-(5-(4-(3-bromo-4-methoxybenzoyl)-3-methyl-5-(methylcarbamoyl)-1H-pyrrol-2-yl)-2H-tetrazol-2-yl)ethyl acetate] |  |

— US20140343017A1, “PYRROLE COMPOUND” (Kabushiki Kaisha Yakult Honsha, priority 2012, published 2014)
